Results taken from PMC6372683, “Mechanism of the natural product moracin-O derived MO-460 and its targeting protein hnRNPA2B1 on HIF-1α inhibition” (Experimental & Molecular Medicine, 2019).
“Also recorded” adds a separate entry of the source.

Columns and labels:
[1] = target: T1, hnRNPA2B1 GRD3 (301–353 aa) (Homo sapiens, UniProt P22626); assay: BLItz association-dissociation binding assay, GST-fused GRD3; conditions: Con. 5 uM
T1 construct: hnRNPA2B1(301-353aa); made in house; host or cells: bacteria (pGEX6P-1 vector)
T1 sequence (P22626 301-353): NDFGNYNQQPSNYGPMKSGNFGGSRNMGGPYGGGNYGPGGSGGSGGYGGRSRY
Experimental: (§1) The binding capacity of hnRNPA2B1 to Biotin-MO-460 was also analyzed using a BLItz™ (Fortebio, Inc., CA, US) instrument with a streptavidin-coated biosensor tip (Pall, USA). The streptavidin-coated tips were pre-wetted for 10 min in an incubation buffer (10 mM HEPES pH 7.4, 1% BSA and 0.05% Tween 20). The streptavidin-coated tips were immobilized with 1 μM Biotin-MO-460 in incubation buffer (10 mM HEPES pH 7.4, 1% BSA and 0.05% Tween 20) for 5 min. The biosensor was washed with HEPES (pH 7.4) and incubated with 250-, 500- and 1,000-nM concentrations of the full-length and truncated hnRNPA2B1 proteins for 3 min. The concentrations were then incubated with HEPES for another 3 min to desorb the protein. Analysis of the accurate and precise kinetic constants was performed by the BLItz data analysis software (BLItz Pro 1.1).

[2] = system: HIF-1α translation in presence of hnRNPA2B1; assay: In vitro transcription/translation assay of HIF-1α; format: biochemical, human; conditions: purified hnRNPA2B1 protein added
Experimental: HIF-1α proteins were synthesized using in vitro transcription/translation systems (Promega, Madison, WI), the protocol was followed the manufacturer’s instructions. In brief, mixtures containing reaction components were incubated at 30 °C for 60 min, and then analyzed by Western blotting using HIF-1α. The template was used HIF-1α plasmid DNA containing untranslated region (Korea human gene bank, Daejeon, Rep. of Korea), and full-length recombinant hnRNPA2B1 and MO-460 were added to the mixture.

[3] = target: T2, full-length hnRNPA2B1 (1–353 aa) (Homo sapiens, UniProt P22626); assay: BLItz association-dissociation binding assay, full-length hnRNPA2B1; conditions: 6XHis tagged protein, Con. 5 uM, biotin-MO-460 on streptavidin tip
T2 construct: 1–353 aa; His; made in house; host or cells: bacteria (pET28A vector)
T2 sequence (P22626 whole entry, the tested form may be a part): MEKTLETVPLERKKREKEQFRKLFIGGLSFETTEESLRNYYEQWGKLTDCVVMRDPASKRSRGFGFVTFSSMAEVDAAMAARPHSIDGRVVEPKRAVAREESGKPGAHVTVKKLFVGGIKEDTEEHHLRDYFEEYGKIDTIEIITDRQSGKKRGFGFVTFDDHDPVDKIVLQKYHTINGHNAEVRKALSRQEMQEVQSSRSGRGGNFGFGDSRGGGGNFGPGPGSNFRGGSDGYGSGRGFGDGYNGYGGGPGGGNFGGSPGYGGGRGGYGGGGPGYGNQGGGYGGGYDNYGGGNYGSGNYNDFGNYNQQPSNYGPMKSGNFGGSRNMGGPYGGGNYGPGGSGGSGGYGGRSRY
Experimental: as §1, with “The biosensor was washed with HEPES (pH 7.4) and incubated with 250-, 500- and 1,000-nM concentrations of the full-length and truncated hnRNPA2B1 proteins for 3 min.” left out

Hep3B cells = assay: Stress granule formation (immunostaining of hnRNPA2B1 and TIA-1); format: cell-based, human; conditions: mimetic hypoxia
[4] = target: T3, hnRNPA2B1 GRD (202–353 aa) (Homo sapiens, UniProt P22626); assay: BLItz association-dissociation binding assay, GRD of hnRNPA2B1; conditions: 6XHis tagged protein, Con. 5 uM, biotin-MO-460 on streptavidin tip
T3 construct: 202–353 aa; His; made in house; host or cells: bacteria (pET28A vector)
T3 sequence (P22626 202-353): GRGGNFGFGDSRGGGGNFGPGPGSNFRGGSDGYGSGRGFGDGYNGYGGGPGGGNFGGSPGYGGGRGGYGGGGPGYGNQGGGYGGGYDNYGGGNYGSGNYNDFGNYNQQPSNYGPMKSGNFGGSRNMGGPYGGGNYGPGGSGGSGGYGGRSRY
Experimental: as §1, with “The biosensor was washed with HEPES (pH 7.4) and incubated with 250-, 500- and 1,000-nM concentrations of the full-length and truncated hnRNPA2B1 proteins for 3 min.” left out

HIF-1α in Hep3B cells = assay: HIF-1α protein accumulation under CoCl2 mimetic hypoxia (immunostaining and western blotting); format: cell-based, human
HIF-1α = HIF-1α accumulation under real hypoxia (1% oxygen), western blotting and immunostaining; format: cell-based, human; conditions: 24 h
Experimental: For immunofluorescence observation, Hep3B cells were seeded on microplates at 2 or 5 × 10^4 cells/mL and cultured for 18 h. […] The medium in the microplate wells was then removed and cells were fixed with 3.7% formaldehyde in PBS for 15 min then permeabilized for 5 min with 100% cold MeOH. Cells were washed with PBS containing 1% bovine serum albumin (PBS-1% BSA), and then treated with 5% bovine serum albumin for 20 min. The cells in each well were treated with HIF-1α antibody in PBS-0.1% BSA then placed in a humidified atmosphere of 5% CO2 at 37 °C and incubated for 60 min. After being washed with PBS-0.1% BSA, treated wells of HIF-1α were incubated with Alexa Fluor 488-conjugated mouse anti-IgG antibody in PBS-0.1% BSA then incubated at room temperature for 60 min. After being washed with PBS-0.1% BSA, the dish wells were overlaid with Hoechst 33342 for 5 min at room temperature and then washed with PBS-0.1% BSA. Fluorescence was photographed with an inverted ECLIPSE Ti-U microscope (Nikon Corporation, Japan).

Kd [1]: 0.299 µM
Kd [3]: 11.4 µM
Kd [4]: 6.6 µM
Compound: CC(C)(O)[C@H]1Cc2cc3cc(-c4ccc(O)cc4)oc3cc2O1 [MO-460, (R)-4-[6-(1-Hydroxy-1-methylethyl)-5,6-dihydro-benzo[1,2-b;5,4-b’]difuran-2-yl]-phenol]
effect on hnRNPA2B1-enhanced HIF-1α translation [2]: attenuated this effect
stress granule formation, co-localization with TIA-1 (Hep3B cells): causes formation of cytoplasmic dots in hnRNPA2B1
accumulation of HIF-1α protein (HIF-1α in Hep3B cells; CoCl2 mimetic hypoxia, 24 h): inhibits the accumulation of HIF-1α protein; also recorded: reduced the level of HIF-1α protein in a concentration-dependent manner; also recorded: completely eliminated the accumulation of HIF-1α
amount of hnRNPA2B1 (HIF-1α in Hep3B cells; western blot): no effect
HIF-1α accumulation (HIF-1α): reduction in HIF-1α accumulation
